Measured values published in patent publication US5846936A, “Growth hormone releasing factor analogs” (Roche Vitamins Inc., priority 1995, dated 1998).
Where a SMILES comes first, the peptide text is derived from it. [ ]: non-standard residue; d: D form. The star is where a group is joined. Desaminotyrosyl = O=C(CCc1ccc(O)cc1)*

Test system: rat pituitary cells
Experiment: not given
Type: cell-based
Conditions: not given
Protocol: The biological activity of the novel peptides were compared with that of a synthetic standard of the natural sequence of GRF(1-44)-NH2 (SEQ ID NO: 1-NH2) which was isolated from a human pancreatic tumor of an individual suffering from acromegaly (Salk Institute standard hp-GRF-NH2 (NL-A-10)). The assay for biological activity, which is based on the ability to stimulate production of growth hormone in rat pituitary cells in tissue culture, was performed in the following manner. Pituitaries from 30-40 male Sprague-Dawley rats (175 g) were removed aseptically after decapitation. The anterior lobes were collected, washed 3 times in sterile Hepes buffer (0.025M)(pH 7.35) and dispersed at 37° C. in 20-30 ml Hepes buffer (pH 7.35) containing collagenase (4 mg per ml) and Dispase (Protease grande II, 2 mg per ml). After gentle 80 min. vortexing and trituration by Pasteur pipette, the dispersed cells were separated by centrifugation (150×g, 4 min.) and re-suspended in Hepes buffer containing neuraminidase (4 mg/ml), and […] ethylenediaminetetraacetic acid (EDTA) disodium salt pH 7.35, for 10 min. The cells were washed twice with plating medium and plated on multiwell-plates (1.5×10^5 cells per ml) using the following defined medium: F-12/DMEM/BGJ(6:3:1) (Gibco: 430-1700/430-1600/320-2591) with 2 g BSA/L., 2.38 g Hepes/L.,50 mg Gentamycin/L (Schering Co.). The medium in each well was supplemented either with the novel peptide or natural GRF(1-44)-NH2 (SEQ ID NO: 1-NH2) at concentrations ranging from 3.1 to 200 fmol. per ml. of medium. Control wells contained no supplement. Plating was done with this medium added with 2% fetal calf serum to ensure rapid fixation of the cells. On the fourth day the cells were washed twice with the defined medium without fetal calf serum. Finally […] of defined medium was added to each well plus […] of the same medium containing each individual treatment, in triplicate. After 3 hours of incubation the medium was collected and diluted as required to conduct radioimmunoassay (RIA) for rat growth hormone. RIAs were conducted using Sinha's anti-murine GH immune serum and procedures according to the National Pituitary Agency using protein A to precipitate antibody antigen complex.

Compound | Potency of GRF Analogs Relative to GRF(1-44)-NH2 (SEQ ID NO: 1-NH2)
CC[C@H](C)[C@H](NC(=O)[C@H](C)NC(=O)[C@H](CC(=O)O)NC(=O)[C@H](C)NC(=O)[C@@H](N)Cc1ccc(O)cc1)C(=O)N[C@@H](Cc1ccccc1)C(=O)N[C@H](C(=O)N[C@@H](CC(N)=O)C(=O)N[C@@H](CO)C(=O)N[C@@H](Cc1ccc(O)cc1)C(=O)N[C@@H](CCCNC(=N)N)C(=O)N[C@@H](CCCCN)C(=O)N[C@H](C(=O)N[C@@H](CC(C)C)C(=O)NCC(=O)N[C@@H](CCC(N)=O)C(=O)N[C@@H](CC(C)C)C(=O)N[C@@H](CO)C(=O)N[C@@H](C)C(=O)N[C@@H](CCCNC(=N)N)C(=O)N[C@@H](CCCCN)C(=O)N[C@@H](CC(C)C)C(=O)N[C@@H](CC(C)C)C(=O)N[C@@H](CCC(N)=O)C(=O)N[C@@H](CC(=O)O)C(=O)N[C@H](C(=O)N[C@@H](CCSC)C(=O)N[C@@H](CO)C(=O)N[C@@H](CCCNC(=N)N)C(=O)N[C@@H](CCC(N)=O)C(=O)N[C@@H](CCC(N)=O)C(=O)NCC(=O)N[C@@H](CCC(=O)O)C(=O)N[C@@H](CO)C(=O)N[C@@H](CC(N)=O)C(=O)N[C@@H](CCC(N)=O)C(=O)N[C@@H](CCC(=O)O)C(=O)N[C@@H](CCCNC(=N)N)C(=O)NCC(=O)N[C@@H](C)C(=O)N[C@@H](CCCNC(=N)N)C(=O)N[C@@H](C)C(=O)N[C@@H](CCCNC(=N)N)C(=O)N[C@@H](CC(C)C)C(N)=O)[C@@H](C)CC)C(C)C)[C@@H](C)O [SEQ ID NO: 1-NH2, GRF(1-44)-NH2, reference compound] | 1.00
CC[C@H](C)[C@H](NC(=O)[C@H](C)NC(=O)[C@H](CC(=O)O)NC(=O)[C@@H](C)NC(=O)CCc1ccc(O)cc1)C(=O)N[C@@H](Cc1ccccc1)C(=O)N[C@H](C(=O)N[C@H](C(=O)N[C@@H](CO)C(=O)N[C@@H](Cc1ccc(O)cc1)C(=O)N[C@@H](CCCNC(=N)N)C(=O)N[C@@H](CCCCN)C(=O)N[C@H](C(=O)N[C@@H](CC(C)C)C(=O)N[C@@H](C)C(=O)N[C@@H](CCC(N)=O)C(=O)N[C@@H](CC(C)C)C(=O)N[C@@H](CO)C(=O)N[C@@H](C)C(=O)N[C@@H](CCCNC(=N)N)C(=O)N[C@@H](CCCCN)C(=O)N[C@@H](CC(C)C)C(=O)N[C@@H](CC(C)C)C(=O)N[C@@H](CCC(N)=O)C(=O)N[C@@H](CC(=O)O)C(=O)N[C@H](C(=O)N[C@@H](CCSC)C(=O)N[C@@H](CO)C(=O)N[C@@H](CCCNC(=N)N)C(N)=O)[C@@H](C)CC)C(C)C)[C@@H](C)O)[C@@H](C)O [SEQ ID NO: 8-NH2] (Desaminotyrosyl-[dA]DAIFTTSYRKVLAQLSARKLLQDIMSR-NH2) | 3.77
CC[C@H](C)[C@H](NC(=O)[C@H](C)NC(=O)[C@H](CC(=O)O)NC(=O)[C@@H](C)NC(=O)CCc1ccc(O)cc1)C(=O)N[C@@H](Cc1ccccc1)C(=O)N[C@H](C(=O)N[C@@H](CO)C(=O)N[C@@H](CO)C(=O)N[C@@H](Cc1ccc(O)cc1)C(=O)N[C@@H](CCCNC(=N)N)C(=O)N[C@@H](CCCCN)C(=O)N[C@H](C(=O)N[C@@H](CC(C)C)C(=O)N[C@@H](C)C(=O)N[C@@H](CCC(N)=O)C(=O)N[C@@H](CC(C)C)C(=O)N[C@@H](CO)C(=O)N[C@@H](C)C(=O)N[C@@H](CCCNC(=N)N)C(=O)N[C@@H](CCCCN)C(=O)N[C@@H](CC(C)C)C(=O)N[C@@H](CC(C)C)C(=O)N[C@@H](CCC(N)=O)C(=O)N[C@@H](CC(=O)O)C(=O)N[C@H](C(=O)N[C@@H](CCSC)C(=O)N[C@@H](CO)C(=O)N[C@@H](CCCNC(=N)N)C(N)=O)[C@@H](C)CC)C(C)C)[C@@H](C)O [SEQ ID NO: 9-NH2] (Desaminotyrosyl-[dA]DAIFTSSYRKVLAQLSARKLLQDIMSR-NH2) | 3.55
CC[C@H](C)[C@H](NC(=O)[C@H](C)NC(=O)[C@H](CC(=O)O)NC(=O)[C@@H](C)NC(=O)CCc1ccc(O)cc1)C(=O)N[C@@H](Cc1ccccc1)C(=O)N[C@H](C(=O)N[C@@H](CCC(N)=O)C(=O)N[C@@H](CO)C(=O)N[C@@H](Cc1ccc(O)cc1)C(=O)N[C@@H](CCCNC(=N)N)C(=O)N[C@@H](CCCCN)C(=O)N[C@H](C(=O)N[C@@H](CC(C)C)C(=O)N[C@@H](C)C(=O)N[C@@H](CCC(N)=O)C(=O)N[C@@H](CC(C)C)C(=O)N[C@@H](CO)C(=O)N[C@@H](C)C(=O)N[C@@H](CCCNC(=N)N)C(=O)N[C@@H](CCCCN)C(=O)N[C@@H](CC(C)C)C(=O)N[C@@H](CC(C)C)C(=O)N[C@@H](CCC(N)=O)C(=O)N[C@@H](CC(=O)O)C(=O)N[C@H](C(=O)N[C@@H](CCSC)C(=O)N[C@@H](CO)C(=O)N[C@@H](CCCNC(=N)N)C(N)=O)[C@@H](C)CC)C(C)C)[C@@H](C)O [SEQ ID NO: 10-NH2] (Desaminotyrosyl-[dA]DAIFTQSYRKVLAQLSARKLLQDIMSR-NH2) | 4.57
CC[C@H](C)[C@H](NC(=O)[C@H](C)NC(=O)[C@H](CC(=O)O)NC(=O)[C@@H](C)NC(=O)[C@@H](N)Cc1c[nH]cn1)C(=O)N[C@@H](Cc1ccccc1)C(=O)N[C@H](C(=O)N[C@@H](CCC(N)=O)C(=O)N[C@@H](CO)C(=O)N[C@@H](Cc1ccc(O)cc1)C(=O)N[C@@H](CCCNC(=N)N)C(=O)N[C@@H](CCCCN)C(=O)N[C@H](C(=O)N[C@@H](CC(C)C)C(=O)N[C@@H](C)C(=O)N[C@@H](CCC(N)=O)C(=O)N[C@@H](CC(C)C)C(=O)N[C@@H](CO)C(=O)N[C@@H](C)C(=O)N[C@@H](CCCNC(=N)N)C(=O)N[C@@H](CCCCN)C(=O)N[C@@H](CC(C)C)C(=O)N[C@@H](CC(C)C)C(=O)N[C@@H](CCC(N)=O)C(=O)N[C@@H](CC(=O)O)C(=O)N[C@H](C(=O)N[C@@H](CC(C)C)C(=O)N[C@@H](CO)C(=O)N[C@@H](CCCNC(=N)N)C(=O)N[C@@H](CCC(N)=O)C(=O)N[C@@H](CCC(N)=O)C(=O)NCC(=O)O)[C@@H](C)CC)C(C)C)[C@@H](C)O [SEQ ID NO: 17-OH] (H-H[dA]DAIFTQSYRKVLAQLSARKLLQDILSRQQG-OH) | 3.23

Test system: not listed separately
Experiment: Half-life stability of GRF analogs in aqueous solution by reverse phase HPLC
Type: physicochemical
Conditions: aqueous buffer pH 7.40 (0.25M Na2HPO4/H3PO4, 1.0 mM NaN3), 37° C., 0.15 mg/mL
Protocol: Half-life stability of GRF analogs in aqueous solution was determined by reverse phase HPLC at 37° C. GRF analogs were prepared as described above. GRF analogs were dissolved in […] of H2 O and then taken up in 1.0 mL of buffer solution (pH 7.40) containing 0.25M Na2 HPO4 /H3 PO4 and 1.0 mM NaN3. The concentration of the GRF analogs was 0.15 mg/mL. The HPLC system was a Laboratory Data Control (LDC) HPLC with a Waters C-18 column (3.9×300 mm, 10μ). The detector was a LDC Spectromonitor III and the gradient delivery system was a Constametric II. Mobile phase--(A) 0.025% TFA in H2 O, (B) 0.025% TFA in acetonitrile. Gradient was 0-37% (B) in 15 minutes for SEQ ID NO: 8-NH2 where Xaa^1 is desNH2 Tyr and Xaa^2 is D-Ala and SEQ ID NO: 9-NH2 where Xaa^1 is desNH2 Tyr and Xaa^2 is D-Ala; 0-35% (B) in 15 minutes for SEQ ID NO: 35-NH2 where Xaa^1 is desNH2 Tyr and Xaa^2 is D-Ala; and 0-36% (B) in 15 minutes for SEQ ID NO: 10-NH2 where Xaa^1 is desNH2 Tyr and Xaa^2 is D-Ala. Flow rate for all gradients was 2 ml/minute. Detection was at 206 nm using a UV detector.

Compound | HALF-LIFE t(1/2) [h]
CC[C@H](C)[C@H](NC(=O)[C@H](C)NC(=O)[C@H](CC(=O)O)NC(=O)[C@@H](C)NC(=O)CCc1ccc(O)cc1)C(=O)N[C@@H](Cc1ccccc1)C(=O)N[C@H](C(=O)N[C@H](C(=O)N[C@@H](CO)C(=O)N[C@@H](Cc1ccc(O)cc1)C(=O)N[C@@H](CCCNC(=N)N)C(=O)N[C@@H](CCCCN)C(=O)N[C@H](C(=O)N[C@@H](CC(C)C)C(=O)N[C@@H](C)C(=O)N[C@@H](CCC(N)=O)C(=O)N[C@@H](CC(C)C)C(=O)N[C@@H](CO)C(=O)N[C@@H](C)C(=O)N[C@@H](CCCNC(=N)N)C(=O)N[C@@H](CCCCN)C(=O)N[C@@H](CC(C)C)C(=O)N[C@@H](CC(C)C)C(=O)N[C@@H](CCC(N)=O)C(=O)N[C@@H](CC(=O)O)C(=O)N[C@H](C(=O)N[C@@H](CCSC)C(=O)N[C@@H](CO)C(=O)N[C@@H](CCCNC(=N)N)C(N)=O)[C@@H](C)CC)C(C)C)[C@@H](C)O)[C@@H](C)O [SEQ ID NO: 8-NH2] (Desaminotyrosyl-[dA]DAIFTTSYRKVLAQLSARKLLQDIMSR-NH2) | 169
CC[C@H](C)[C@H](NC(=O)[C@H](C)NC(=O)[C@H](CC(=O)O)NC(=O)[C@@H](C)NC(=O)CCc1ccc(O)cc1)C(=O)N[C@@H](Cc1ccccc1)C(=O)N[C@H](C(=O)N[C@@H](CCC(N)=O)C(=O)N[C@@H](CO)C(=O)N[C@@H](Cc1ccc(O)cc1)C(=O)N[C@@H](CCCNC(=N)N)C(=O)N[C@@H](CCCCN)C(=O)N[C@H](C(=O)N[C@@H](CC(C)C)C(=O)N[C@@H](C)C(=O)N[C@@H](CCC(N)=O)C(=O)N[C@@H](CC(C)C)C(=O)N[C@@H](CO)C(=O)N[C@@H](C)C(=O)N[C@@H](CCCNC(=N)N)C(=O)N[C@@H](CCCCN)C(=O)N[C@@H](CC(C)C)C(=O)N[C@@H](CC(C)C)C(=O)N[C@@H](CCC(N)=O)C(=O)N[C@@H](CC(=O)O)C(=O)N[C@H](C(=O)N[C@@H](CCSC)C(=O)N[C@@H](CO)C(=O)N[C@@H](CCCNC(=N)N)C(N)=O)[C@@H](C)CC)C(C)C)[C@@H](C)O [SEQ ID NO: 10-NH2] (Desaminotyrosyl-[dA]DAIFTQSYRKVLAQLSARKLLQDIMSR-NH2) | 122
